Assay results reported in publication PMC10533401, “Development of two mouse strains conditionally expressing bright luciferases with distinct emission spectra as new tools for in vivo imaging” (Lab Animal, 2023).

System: T1, oFluc
T1 construct: gene firefly luciferase; not fused to Venus
Experiment: luminescence intensity, luminometer, Michaelis-Menten fit
Type: biochemical, Pyrocoelia matsumurai
Settings: 0.1 M citric acid/0.1 M Na2HPO4 pH 7.0, 1 mM ATP, 2 mM MgSO4, D-luciferin 0-990 µM; partially purified enzyme
Description: luminescence intensity, luminometer, Michaelis-Menten fit on oFluc | Km for oFluc or Venus/Akaluc for D-luciferin or AkaLumine were determined

Km: 31.9 µM
SMILES: O=C(O)[C@H]1CSC(c2nc3ccc(O)cc3s2)=N1 [D-luciferin]
